This note sets out measurements from patent US6420387B1, “Farnesyl protein transferase inhibiting (imidazol-5-yl) methyl-2-quinolinone derivatives” (Janssen Pharmaceutica N.V., priority 1995, dated 2002).

In assay [1] the target is T1, Human farnesyl protein transferase (Homo sapiens, UniProt P49354+P49356).
T1 construct: grown as monolayer cell cultures were used as a source of human enzyme; endogenous in cells; host or cells: KHOS (Kirsten virus transformed human osteosarcoma) cells, grown as solid tumors in nude mice or as monolayer cultures; 30-50% ammonium sulfate fraction, then Q Fast Flow Sepharose
Description: In vitro assay for inhibition of farnesyl protein transferase (scintillation proximity assay). It counts as biochemical. Conditions: concentration producing 50% inhibition of enzyme activity; [3H]-farnesylpyrophosphate and biotinylated lamin B peptide substrates, 60 min at 37° C. Here is the method: Human farnesyl protein transferase was prepared essentially as described (Y. Reiss et al., Methods: A Companion to Methods in Enzymology vol 1, 241-245, 1990). Kirsten virus transformed human osteosarcoma (KHOS) cells (American Type Culture Collection, Rockville, Md., USA) grown as solid tumors in nude mice or grown as monolayer cell cultures were used as a source of human enzyme. Briefly, cells or tumors were homogenized in buffer containing 50 mM Tris, 1 mM EDTA, 1 mM EGTA and 0.2 mM phenylmethylsulfonylfluoride (pH 7.5). The homogenates were centrifuged 28,000×g for 60 min and the supernatants collected. A 30-50% ammonium sulfate fraction was prepared, and the resulting precipitate was resuspended in a small (10 to 20 ml) volume of dialysis buffer containing 20 mM Tris 1 mM dithiothreitol and 20 μM ZnCl2. The ammonium sulfate fraction was dialyzed overnight against two changes of the same buffer. The dialyzed material was applied to a 10×1 cm Q Fast Flow Sepharose (Pharmacia LKB Biotechnology Inc., Piscataway, N.J., USA) which had been preequilibrated with 100 ml of dialysis buffer supplemented with 0.05 M NaCl. The column was washed with an additional 50 ml of dialysis buffer plus 0.05 M NaCl followed by a gradient from 0.05 M to 0.25 M NaCl prepared in dialysis buffer. The enzyme activity was eluted with a linear gradient of 0.25 to 1.0 M NaCl prepared in the dialysis buffer. Fractions containing 4 to 5 ml volumes of column eluate were collected and analyzed for farnesyl protein transferase activity. Fractions with enzyme activity were pooled and supplemented with 100 μM ZnCl2. Enzyme samples were stored frozen at −70° C.
The activity of farnesyl protein transferase was measured using the Farnesyl Transferase [^3H] Scintillation Proximity Assay (Amersham International plc., England) under the conditions specified by the manufacturer. To assay for inhibitors of the enzyme, 0.20 μCi of the [^3H]-famesylpyrophosphate substrate and the biotinylated lamin B peptide substrate (biotin-YRASNRSCAIM) were mixed with test compounds in a reaction buffer consisting of 50 mM HEPES, 30 mM MgCl2, 20 mM KCl, 5 mM dithiothreitol, 0.01% Triton X-100. Test compounds were delivered in a 10 μl volume of dimethylsulfoxide (DMSO) to achieve concentrations of 1 and 10 μg/ml in a final volume of 100 μl. The reaction mixture was warmed to 37° C. The enzyme reaction was started by adding 20 μl of diluted human farnesyl protein transferase. Sufficient enzyme preparation was added to produce between 4000 to 15000 cpm of reaction product during the 60 min of reaction incubation at 37° C. Reactions were terminated by the addition of STOP/scintillation proximity bead reagent (Amersham). The reaction product [^3H]-farnesyl-(Cys)-biotin lamin B peptide was captured on the streptavidin linked scintillation proximity bead. The amount of [^3H]-farnesyl-(Cys)-biotin lamin B peptide synthesized in the presence or absence of test compounds was quantified as cpm by counting on a Wallac Model 1480 Microbeta Liquid Scintillation Counter. The cpm of product was considered to be farnesyl protein transferase activity. The protein farnesyl transferase activity observed in the presence of test compound was normalized to farnesyl transferase activity in the presence of 10% DMSO and expressed as per cent inhibition. […] The effects of test compounds in these studies were calculated as IC50 (concentration of test compound producing 50% inhibition of enzyme activity) using the LGICV50 computer program written by the Science Information Division of R. W. Johnson Pharmaceutical Research Institute (Spring House, Pa., USA) on a VAX computer.
(In general: SPA uses beads or plates that emit light when radiolabelled molecules are held near them.)

Assay [2] concerns NIH 3T3 cells transformed by the T24 activated human H-ras gene. Description: Ras-transformed cell phenotype reversion assay. It counts as cell-based, mouse. Particulars: cell counts after 72 hours proliferation, corrected for initial input of 200,000 cells. The source says:
Insertion of activated oncogenes such as the mutant ras gene into mouse NIH 3T3 cells converts the cells to a transformed phenotype. The cells become tumorigenic, display anchorage independent growth in semi-solid medium and lose contact inhibition. Loss of contact inhibition produces cell cultures which no longer form uniform monolayers. Rather, the cells pile up into multicellular nodules and grow to very high saturation densities in plastic tissue culture dishes. Agents such as protein farnesyl transferase inhibitors which revert the ras transformed phenotype restore the uniform monolayer growth pattern to cells in culture. This reversion is easily monitored by counting the number of cells in tissue culture plates. Transformed cells will achieve higher cell numbers than cells which have reverted to an untransformed phenotype. Compounds which revert the transformed phenotype should produce antitumor effects in tumors bearing ras gene mutations.
Compounds are screened in tissue culture in NIH 3T3 cells transformed by the T24 activated human H-ras gene. Cells are seeded at an initial density of 200,000 cells per well (9.6 cm^2 surface area) in six-well cluster tissue culture plates. Test compounds are immediately added to 3.0 ml cell growth medium in a 3.0 μl volume of DMSO, with a final concentration of DMSO in the cell growth medium of 0.1%. The test compounds are run at concentrations of 5, 10, 50, 100, and 500 nM along with a DMSO treated vehicle control. (In case a high activity is observed at 5 nM, the test compound is tested at even lower concentrations.) The cells are allowed to proliferate for 72 hours. Then the cells are detached in 1.0 ml trypsin-EDTA cell dissociation medium and counted on a Coulter particle counter.
Cell numbers expressed as cells per well are measured using a Coulter Particle Counter.
All cell counts were corrected for the initial cell input density by subtracting 200,000.
Control cell counts=[cell counts from cells incubated with DMSO vehicle −200,000].
Test compound cell counts=[cell counts from cells incubated with test compound −200,000]. [formula]
IC50 (i.e. the test compound concentration required to inhibit enzyme activity by 50%) is calculated if sufficient data are available, summarized in table 11.

By IC50 is commonly meant the point on the concentration scale where inhibition reaches its midpoint. Read a low IC50 as greater potency.

Counter-ions that a name gives are not always drawn.

Turning to `COC(c1ccc(Cl)cc1)(c1ccc2c(c1)c(-c1cccc(Cl)c1)cc(=O)n2C)c1cncn1C` (racemic) [Compound 4, (±)-4-(3-chlorophenyl)-6-[(4-chlorophenyl)methoxy(1-methyl-1H-imidazol-5-yl)methyl]-1-methyl-2(1H)-quinolinone ethanedioate(1:1).dihydrate], in assay [1], 24 nM corresponded to half-maximal inhibition (IC50).

`Cn1cncc1C(c1ccc(Cl)cc1)c1ccc2c(c1)c(-c1cccc(Cl)c1)cc(=O)n2C` (racemic) [Compound 5, (±)-4-(3-chlorophenyl)-6-[(4-chlorophenyl)(1-methyl-1H-imidazol-5-yl)methyl]-1-methyl-2(1H)-quinolinone ethanedioate(1:1).mono-hydrate]: the values for the concentration for half-maximal inhibition (IC50) in assay [2] (NIH3T3) and in assay [1] were 32 nM and 25 nM, respectively.

`COc1cccc(-c2cc(=O)n(C)c3ccc(C(O)(c4ccc(Cl)cc4)c4cncn4C)cc23)c1` (racemic) [Compound 36, (±)-6-[(4-chlorophenyl)hydroxy(1-methyl-1H-imidazol-5-yl)methyl]-4-(3-methoxyphenyl)-1-methyl-2(1H)-quinolinone]: the IC50 in assay [1] is 2.8 nM.

On to `CNC(c1ccc(Cl)cc1)(c1ccc2c(c1)c(-c1cccc(Cl)c1)cc(=O)n2C)c1cncn1C` (racemic) [Compound 61, (±)-4-(3-chlorophenyl)-6-[(4-chlorophenyl)(methylamino)(1-methyl-1H-imidazol-5-yl)methyl]-1-methyl-2(1H)-quinolinone monohydrate], for which the IC50 in assay [2] (NIH3T3) was found to be 310 nM; in assay [1], 1.1 nM.

On to `Cn1cncc1C(CCl)(c1ccc(Cl)cc1)c1ccc2c(c1)c(-c1cccc(Cl)c1)cc(=O)n2C` (racemic) [Compound 69, (±)-6-[2-chloro-1-(4-chlorophenyl)-1-(1-methyl-1H-imidazol-5-yl)ethyl]-4-(3-chlorophenyl)-1-methyl-2(1H)-quinolinone ethanedioate (1:1)], for which the IC50 in assay [2] (NIH3T3) worked out at 14 nM; in assay [1] it was 3.4 nM.

`COCC(=O)NC(c1ccc(Cl)cc1)(c1ccc2c(c1)c(-c1cccc(Cl)c1)cc(=O)n2C)c1cncn1C` (racemic) [Compound 89, (±)-N-[(4-chlorophenyl)[4-(3-chlorophenyl)-1,2-dihydro-1-methyl-2-oxo-6-quinolinyl](1-methyl-1H-imidazol-5-yl)methyl]-2-methoxyacetamide monohydrochloride] displayed an IC50 in assay [2] (NIH3T3) of 24 nM.

Compound `Cn1cncc1C(c1ccc(Cl)cc1)c1ccc2c(c1)c(-c1cccc(Cl)c1)cc(=S)n2C` (racemic) [Compound 128, (±)-4-(3-chlorophenyl)-6-[(4-chlorophenyl)(1-methyl-1H-imidazol-5-yl)methyl]-1-methyl-2(1H)-quinolinethione] showed an IC50 in assay [2] (NIH3T3) of 177 nM.

In the case of `Cn1cncc1C(N)(c1ccc(Cl)cc1)c1ccc2c(c1)c(-c1cccc(Cl)c1)c(Cl)c(=O)n2C` (racemic) [Compound 143, (±)-6-[amino(4-chlorophenyl)(1-methyl-1H-imidazol-5-yl)methyl]-3-chloro-4-(3-chlorophenyl)-1-methyl-2(1H)-quinolinone], the IC50 in assay [2] (NIH3T3) turned out to be 82 nM.

Take `Cn1cncc1C(O)(c1ccc(Cl)cc1)c1ccc2c(c1)c(-c1ccccc1)cc(=O)n2C` (centres unmarked) [Compound 1]: the IC50 in assay [1] was found to be 6 nM.

Take `Cn1cncc1C(c1ccc(Cl)cc1)c1ccc2[nH]c(=O)cc(-c3cccc(Cl)c3)c2c1` (centres unmarked) [Compound 7]: the IC50 in assay [1] turned out to be 1.6 nM.

In assay [1], `Cn1cncc1C(OCCCO)(c1ccc(Cl)cc1)c1ccc2c(c1)c(-c1cccc(Cl)c1)cc(=O)n2C` (centres unmarked) [Compound 15] yielded an IC50 of 18.4 nM.

As for `Cn1cncc1C(O)(c1ccc(Cl)cc1)c1ccc2c(c1)c(-c1cccc(Cl)c1)cc(=O)n2C` (centres unmarked) [Compound 23, (A)-4-(3-chlorophenyl)-6-[(4-chlorophenyl)-hydroxy(1-methyl-1H-imidazol-5-yl)methyl]-1-methyl-2(1H)-quinolinone ethanedioate (1:1)], in assay [2], the IC50 stood at 395 nM.

On to `Cn1cncc1C(O)(c1ccc(Cl)cc1)c1ccc2c(c1)c(-c1cccc(Cl)c1)cc(=O)n2C` (centres unmarked) [Compound 24, (B)-4-(3-chlorophenyl)-6-[(4-chlorophenyl)hydroxy(1-methyl-1H-imidazol-5-yl)methyl]-1-methyl-2(1H)-quinolinone ethanedioate(1:1)], for which the IC50 was 16 nM in assay [2] (NIH3T3) and 2.7 nM in assay [1].

As for `CCOCCCOC(c1ccc(Cl)cc1)(c1ccc2c(c1)c(-c1cccc(Cl)c1)cc(=O)n2C)c1cncn1C` (centres unmarked) [Compound 29], the IC50 in assay [2] (NIH3T3) came to 345 nM; in assay [1] it was 57 nM.

For the compound `CCCOc1cccc(-c2cc(=O)n(C)c3ccc(C(O)(c4ccc(Cl)cc4)c4cncn4C)cc23)c1` (centres unmarked) [Compound 37], inhibition in assay [1] was half-maximal at 10.1 nM (IC50).

The compound `Cn1c(=O)cc(-c2ccccc2)c2cc(C(c3ccc(Cl)cc3)c3c[nH]cn3)ccc21` (centres unmarked) [Compound 42] showed a half-maximal inhibitory concentration (IC50) in assay [1] of 910 nM.

In the case of `Cn1c(=O)cc(-c2cccc(Cl)c2)c2cc(C(c3ccc(Cl)cc3)c3c[nH]cn3)ccc21` (centres unmarked) [Compound 45], in assay [1], the IC50 was determined as 1000 nM.

Compound `CCCOc1cccc(-c2cc(=O)n(C)c3ccc(C(c4ccc(Cl)cc4)c4cncn4C)cc23)c1` (centres unmarked) [Compound 52] registered a concentration for half-maximal inhibition (IC50) in assay [1] of 5.7 nM.

Turning to `CCOC(=O)CC(c1ccc(Cl)cc1)(c1ccc2c(c1)c(-c1cccc(Cl)c1)cc(=O)n2C)c1cncn1C` (centres unmarked) [Compound 58], the IC50 in assay [2] (NIH3T3) was found to be 96 nM; in assay [1], 2.8 nM.

With `Cn1cncc1C(c1ccc(Cl)cc1)(c1ccc2c(c1)c(-c1cccc(Cl)c1)cc(=O)n2C)n1ccnc1` (centres unmarked) [Compound 60], the IC50 in assay [2] (NIH3T3) came to 70 nM; in assay [1], 0.62 nM.

In the case of `Cn1cncc1C(O)(c1ccc(Cl)cc1)c1ccc2c(c1)c(-c1cccc(OCCO)c1)cc(=O)n2C` (centres unmarked) [Compound 63], the IC50 in assay [2] (NIH3T3) worked out at 53 nM; in assay [1] it was 1 nM.

Regarding `Cn1cncc1C(O)(c1ccc(Cl)cc1)c1ccc2c(c1)c(-c1cccc(O)c1)cc(=O)n2C` (centres unmarked) [Compound 64], in assay [1], it took 11.6 nM to reach half-maximal inhibition (IC50).

Take `CCc1cccc(-c2cc(=O)n(C)c3ccc(C(O)(c4ccc(Cl)cc4)c4cncn4C)cc23)c1` (centres unmarked) [Compound 97]: the IC50 in assay [1] was 2.9 nM.

Compound `CCCc1cccc(-c2cc(=O)n(C)c3ccc(C(O)(c4ccc(Cl)cc4)c4cncn4C)cc23)c1` (centres unmarked) [Compound 99] displayed an IC50 in assay [1] of 1.7 nM.
